Assays:
Assay type in all cases: cell-based
[1] = tested on: human melanoma cell line MNT-1 cells; assay: in vitro melanogenesis / melanin production in MNT-1 cells
Experimental: In the MNT-1 cell in vitro tests, neferine and liensinine reduced melanin production after seven days by at least 50%, 60%, 70%, 80% or greater at concentrations ranging from 0.1 μM to 5 μM.

primary human melanocyes = assay: in vitro melanogenesis in primary melanocytes
[2] = tested on: 3-D dark pigmented epidermis model Melanoderm™ MEL0300B tissue; assay: in vitro melanogenesis in 3-D pigmented epidermis model

Measured: inhibition of melanogenesis

COc1ccc(C[C@@H]2c3cc(Oc4cc(C[C@@H]5c6cc(OC)c(OC)cc6CCN5C)ccc4O)c(OC)cc3CCN2C)cc1 [Neferine, neferine]
significantly inhibit melanogenesis: all assays above

COc1cc2c(cc1OC)[C@@H](Cc1ccc(O)c(Oc3cc4c(cc3OC)CCN(C)[C@@H]4Cc3ccc(O)cc3)c1)N(C)CC2 [liensinine]
significantly inhibit melanogenesis: all assays above

Reference: patent publication US20240066086A1, “Topical Hyperpigmentation Compositions and Method of Use” (Allergan Sales, LLC, priority 2022, published 2024)
